Reference: patent US11827646B2, “Compounds for treating spinal muscular atrophy” (Hoffmann-La Roche Inc., priority 2014, dated 2023)

Tests used:
[1] = system: SMN protein in SMA patient fibroblast cells (GM03813); test: SMN protein assay in cultured cells (SMN HTRF); format: cell-based; details: Homo sapiens, SMA Type 1 patient fibroblasts, 48 hours; for EC (1.5-fold): 7-point concentration curve, 1.5 times SMN protein vs vehicle, read-out: EC1.5x SMN protein (EC1.5x concentration for SMN protein expression); for maximal fold induction: fold increase relative to vehicle control, read-out: max. fold increase of SMN protein
Excerpt: The term “EC1.5x concentration for SMN protein expression” (or “EC1.5x SMN protein”) is defined as that concentration of test compound that is effective in producing 1.5 times the amount of SMN protein in an SMA patient fibroblast cell compared to the amount produced from the vehicle control.
The SMN HTRF (homogeneous time resolved fluorescence) assay is used to quantify the level of SMN protein in SMA patient fibroblast cells treated with test compounds. Materials used and respective sources are listed below in Table 4.
Cells are thawed and cultured in DMEM-10% FBS for 72 hours. Cells are trypsinized, counted and re-suspended to a concentration of 25,000 cells/mL in DMEM-10% FBS. The cell suspensions are plated at 5,000 cells per well in a 96 well microtiter plate and incubated for 3 to […]. Test compounds are serially diluted 3.16-fold in 100% DMSO to generate a 7-point concentration curve. 1 μL of test compound solution is transferred to cell-containing wells and cells are incubated for 48 hours in a cell culture incubator (37° C., 5% CO2, […]). Triplicate samples are set up for each test compound concentration. After 48 hours, the supernatant is removed from the wells and 25 μL of the RIPA lysis buffer, containing protease inhibitors, is added to the wells and incubated with shaking at room temperature for 1 hour. 25 μL of the diluent is added and then 35 μL of the resulting lysate is transferred to a 384-well plate, where each well contains 5 μL of the antibody solution (1:100 dilution of anti-SMN d2 and anti-SMN kryptate in SMN reconstitution buffer). The plate is centrifuged for 1 minute to bring the solution to the bottom of the wells, then incubated overnight at room temperature. Fluorescence for each well of the plate at 665 nm and 620 nm is measured on an EnVision multilabel plate reader (Perkin-Elmer).
The normalized fluorescence signal is calculated for each sample, Blank and vehicle control well by dividing the signal at 665 nm by the signal at 620 nm. Normalizing the signal accounts for possible fluorescence quenching due to the matrix effect of the lysate. The ΔF value (a measurement of SMN protein abundance as a percent value) for each sample well is calculated by subtracting the normalized average fluorescence for the Blank control wells from the normalized fluorescence for each sample well, then dividing this difference by the normalized average fluorescence for the Blank control wells and multiplying the resulting value by 100. The ΔF value for each sample well represents the SMN protein abundance from test compound-treated samples. The ΔF value for each sample well is divided by the ΔF value for the vehicle control wells to calculate the fold increase in SMN protein abundance relative to the vehicle control. Table 5 provides EC1.5x concentrations for SMN protein expression that was obtained from the 7-point concentration data generated according to the above procedure for particular compounds of the present invention.
Table 6 provides the maximum fold increase of SMN protein that was obtained from the 7-point concentration data generated according to the above procedure for particular compounds of the present invention

[2] = system: full length SMN2 minigene mRNA (HEK293H cells stably transfected with SMN2-A minigene); test: SMN2 minigene mRNA splicing RT-qPCR assay in cultured cells; format: cell-based; details: Homo sapiens, HEK293-H, 24 hours, 7-point concentration curve, 1.5-fold increase relative to vehicle, read-out: EC1.5x minigene (EC1.5x concentration for production of full length SMN2 minigene mRNA)
Excerpt: The term “EC1.5x concentration for production of full length SMN2 minigene mRNA” (or “EC1.5x minigene”) is defined as that concentration of test compound that 1 s effective m increasing the amount of full length SMN2 minigene mRNA to a level 1.5-fold greater relative to that in vehicle-treated cells.
The reverse transcription-quantitative PCR-based (RT-qPCR) assay is used to quantify the level of the full length SMN2 minigene (referred to herein by the term “FL SMN2mini”) mRNA containing SMN2 exon 7 in a HEK293H cell line stably transfected with said minigene and treated with a test compound. Materials used and respective sources are listed below in Table 1.
The SMN2-A minigene construct was prepared as described in International Patent Application WO2009/151546A1 page 145 paragraph [00400] to page 147 paragraph [00412](incl. FIG. 1 and FIG. 3 therein).
HEK293H cells stably transfected with the SMN2-A minigene construct (10,000 cells/well) are seeded in 200 μL of cell culture medium (DMEM plus 10% FBS, with 200 μg/mL hygromycin) in 96-well flat-bottom plates and the plate is immediately swirled to ensure proper dispersal of cells and the formation of an even monolayer of cells. Cells are allowed to attach for 6 hours. Test compounds are serially diluted 3.16-fold in 100% DMSO to generate a 7-point concentration curve. A solution of test compound (1 μL, 200× in DMSO) is added to each cell-containing well and the plate is incubated for 24 hours in a cell culture incubator (37° C., 5% CO2, 100% relative humidity). 2 replicates are prepared for each test compound concentration. The cells are then lysed in the Cells-To-Ct lysis buffer and the lysate is stored at −80° C.
Full length SMN2-A minigene and GAPDH mRNA are quantified using the primers and probes referenced in Table 2. Primer SMN Forward A (SEQ ID NO.1) hybridizes to a nucleotide sequence in exon 7 (nucleotide 22 to nucleotide 40), primer SMN Reverse A (SEQ ID NO.2) hybridizes to a nucleotide sequence in the coding sequence of Firefly luciferase, SMN Probe A (SEQ ID NO.3) hybridizes to a nucleotide sequence in exon 7 (nucleotide 50 to nucleotide 54) and exon 8 (nucleotide 1 to nucleotide 21). The combination of these three oligonucleotides detects only SMN1 or SMN2 minigenes (RT-qPCR) and will not detect endogenous SMN1 or SMN2 genes.
The SMN forward and reverse primers are used at final concentrations of 0.4 μM. The SMN probe is used at a final concentration of 0.15 μM. The GAPDH primers are used at final concentrations of 0.2 μM and the probe at 0.15 μM.
The SMN2-minigene GAPDH mix (15 μL total volume) is prepared by combining 7.5 μL of 2×RT-PCR buffer, 0.4 μL of 25×RT-PCR enzyme mix, 0.75 μL of 20×GAPDH primer-probe mix, 4.0075 μL of water, 2 μL of 10-fold diluted cell lysate, 0.06 μL of 100 µM SMN forward primer, 0.06 μL of 100 μM SMN reverse primer, and 0.225 μL of 100 μM SMN probe.
PCR is carried out at the following temperatures for the indicated time: Step 1: 48° C. (15 min); Step 2: 95° C. (10 min); Step 3: 95° C. (15 sec); Step 4: 60° C. (1 min); then repeat Steps 3 and 4 for a total of 40 cycles.
Each reaction mixture contains both SMN2-A minigene and GAPDH primers/probe sets (multiplex design), allowing simultaneous measurement of the levels of two transcripts.
The increase in the abundance of the FL SMN2mini mRNA relative to that in cells treated with vehicle control is determined from real-time PCR data using a modified ΔΔCt method (as described in Livak and Schmittgen, Methods, 2001, 25:402-8). The amplification efficiency E is calculated from the slope of the amplification curve for FL SMN2mini and GAPDH individually. The abundance of FL SMN2mini and GAPDH mRNA are then calculated as (1+E)^−Ct, where Ct is the threshold value for each amplicon. The abundance of FL SMN2mini mRNA is normalized to GAPDH mRNA abundance. […]

| Structure (SMILES) | EC (1.5-fold) [1] [µM] | maximal fold induction [1] | EC (1.5-fold) [2] [µM] |
| --- | --- | --- | --- |
| Cc1cn2nc(-c3cc(=O)n4cc(N5CCNC(C)(C)C5)ccc4n3)cc(C)c2n1 [Example 22, 2-(2,8-dimethylimidazo[1,2-b]pyridazin-6-yl)-7-(3,3-dimethylpiperazin-1-yl)pyrido[1,2-a]pyrimidin-4-one] | 0.0138 | 1.69 | 0.0009 |
| Cc1cn2nc(-c3cc(=O)n4cc(N5C[C@H](C)N[C@@H](C)C5)ccc4n3)ccc2n1 [Example 32, 7-[(3S,5S)-3,5-dimethylpiperazin-1-yl]-2-(2-methylimidazo[1,2-b]pyridazin-6-yl)pyrido[1,2-a]pyrimidin-4-one] | 0.004 | 1.88 | 0.0016 |
| Cc1cn2nc(-c3cc(=O)n4cc(N5CCN[C@H](C)C5)ccc4n3)ccc2n1 [Example 12, 2-(2-methylimidazo[1,2-b]pyridazin-6-yl)-7-[(3R)-3-methylpiperazin-1-yl]pyrido[1,2-a]pyrimidin-4-one] | 0.0075 | 1.77 | 0.0012 |
| Cc1cn2nc(-c3cc(=O)n4cc(N5C[C@@H](C)N[C@@H](C)C5)ccc4n3)cc(C)c2n1 [Example 7, 2-(2,8-dimethylimidazo[1,2-b]pyridazin-6-yl)-7-[(3S,5R)-3,5-dimethylpiperazin-1-yl]pyrido[1,2-a]pyrimidin-4-one] | 0.0155 | 1.76 | 0.0037 |
| Cc1cn2nc(-c3cc(=O)n4cc(N5CCN[C@H](C)C5)ccc4n3)cc(C)c2n1 [Example 9, 2-(2,8-dimethylimidazo[1,2-b]pyridazin-6-yl)-7-[(3R)-3-methylpiperazin-1-yl]pyrido[1,2-a]pyrimidin-4-one] | 0.0025 | 1.92 | 0.0001 |
| Cc1cn2nc(-c3cc(=O)n4cc(N5CCNC6(CC6)C5)cc(C)c4n3)cc(C)c2n1 [Example 28, 7-(4,7-diazaspiro[2.5]octan-7-yl)-2-(2,8-dimethylimidazo[1,2-b]pyridazin-6-yl)-9-methyl-pyrido[1,2-a]pyrimidin-4-one] | 0.0497 | 1.72 | 0.005 |
| Cc1cn2nc(-c3cc(=O)n4cc(N5CCN6CCC[C@]6(C)C5)ccc4n3)cc(C)c2n1 [Example 6, 7-[(8aR)-8a-methyl-1,3,4,6,7,8-hexahydropyrrolo[1,2-a]pyrazin-2-yl]-2-(2,8-dimethylimidazo[1,2-b]pyridazin-6-yl)pyrido[1,2-a]pyrimidin-4-one] | 0.011 | 1.84 | 0.0028 |
| Cc1cn2nc(-c3cc(=O)n4cc(N5C[C@H](C)N[C@@H](C)C5)ccc4n3)cc(C)c2n1 [Example 29, 2-(2,8-dimethylimidazo[1,2-b]pyridazin-6-yl)-7-[(3S,5S)-3,5-dimethylpiperazin-1-yl]pyrido[1,2-a]pyrimidin-4-one] | 0.0021 | 1.81 | 0.0003 |
| Cc1cn2nc(-c3cc(=O)n4cc(N5CCNC6(CC6)C5)cc(C)c4n3)ccc2n1 [Example 37, 7-(4,7-diazaspiro[2.5]octan-7-yl)-9-methyl-2-(2-methylimidazo[1,2-b]pyridazin-6-yl)pyrido[1,2-a]pyrimidin-4-one] | 0.045 | 1.87 | 0.0044 |
| CC[C@@H]1CN(c2ccc3nc(-c4ccc5nc(C)cn5n4)cc(=O)n3c2)CCN1 [Example 39, 7-[(3R)-3-ethylpiperazin-1-yl]-2-(2-methylimidazo[1,2-b]pyridazin-6-yl)pyrido[1,2-a]pyrimidin-4-one] | 0.0158 | 1.81 | 0.0009 |
| Cc1cn2nc(-c3cc(=O)n4cc(N5CCN6CCC[C@@H]6C5)ccc4n3)ccc2n1 [Example 2, 7-[(8aR)-3,4,6,7,8,8a-hexahydro-1H-pyrrolo[1,2-a]pyrazin-2-yl]-2-(2-methylimidazo[1,2-b]pyridazin-6-yl)pyrido[1,2-a]pyrimidin-4-one] | 0.0198 | 1.76 | 0.0038 |
| Cc1cn2nc(-c3cc(=O)n4cc(N5CCN6CCC[C@H]6C5)ccc4n3)ccc2n1 [Example 15, 7-[(8aS)-3,4,6,7,8,8a-hexahydro-1H-pyrrolo[1,2-a]pyrazin-2-yl]-2-(2-methylimidazo[1,2-b]pyridazin-6-yl)pyrido[1,2-a]pyrimidin-4-one] | 0.0212 | 1.94 | 0.004 |
| Cc1cn2nc(-c3cc(=O)n4cc(N5CCN6CCC[C@@H]6C5)ccc4n3)cc(C)c2n1 [Example 4, 7-[(8aR)-3,4,6,7,8,8a-hexahydro-1H-pyrrolo[1,2-a]pyrazin-2-yl]-2-(2,8-dimethylimidazo[1,2-b]pyridazin-6-yl)pyrido[1,2-a]pyrimidin-4-one] | 0.0157 | 1.76 | 0.0018 |
